Reference: PMC6681416, “Novel Derivatives of Deoxycholic Acid Bearing Linear Aliphatic Diamine and Aminoalcohol Moieties and their Cyclic Analogs at the C3 Position: Synthesis and Evaluation of Their In Vitro Antitumor Potential” (Molecules, 2019)

Assays:
[1] = tested on: NO synthesis by IFNγ-activated RAW264.7 cells; test: Inhibition of NO production by stimulated macrophages (Griess); type: cell-based, murine; details: Mus musculus, RAW264.7, 24 h, read-out: IC50NO
Experimental: RAW264.7 cells were seeded in triplicate in 96-well plates at a density of 5 × 10^4 cells/well and incubated under standard conditions for 24 h. The cells were treated with 20 ng/mL of murine recombinant IFNγ (GIBCO, Gaithersburg, MD, USA), with or without (control) compounds at various concentrations for 24 h. The level of NO production was evaluated by determining the nitrite concentration in culture medium with a Griess Reagent System (Promega, Madison, WI, USA). The IC50^NO value was calculated as the derivative concentration required to decrease NO production to 50% of the non-treated control.

[2] = tested on: panel of cultured cell lines (HuTu-80, HepG2, KB-3-1, A549, RAW264.7, hFF3); test: MTT cytotoxicity, range over the panel of tested cell lines; type: cell-based; details: 24 h, summary of Table 1 (for 2–10 partly from ref [21])
Description: (§1) According to our previous data and data published by other research groups, chemical transformations of bile acids can greatly improve their antitumor potential. Thus, as the first step of evaluation of the biological activities of our novel DCA derivatives we assessed their effects on tumor cell viability. The cytotoxicity of the compounds was investigated with respect to a panel of cultured cell lines, including human duodenal HuTu-80, hepatocellular HepG2, cervical KB-3-1 and lung A549 carcinomas as well as murine macrophage RAW264.7 and non-transformed human fibroblasts hFF3 by MTT assay.
Cells were seeded in triplicate in 96-well plates at a density of 5 × 10^3 (HuTu-80, HepG2, KB-3-1, hFF3), 10^4 (A549) or 5 × 10^4 (RAW264.7) cells per well. Cells were incubated under standard conditions for 24 h and then they were treated with varying doses of investigated derivatives for subsequent 24 h. Then 10 µL of MTT solution (5 mg/mL) were added to each wells and cells were incubated for an additional 2 h under standard conditions. The crystals of formazan forming within live cells were solubilized with DMSO and the absorbance was measured in a Multiscan RC plate reader (Thermo LabSystems, Helsinki, Finland) at a test and reference wavelengths of 570 nm and 620 nm, respectively. […]

HepG2 cells = test: MTT cytotoxicity assay, HepG2; type: cell-based, human; details: for IC50: Homo sapiens, HepG2, MTT, 24 h, read-out: IC50 HepG2 (liver); for Selectivity index HepG-2: ratio IC50 hFF3 / IC50 HepG2
Description: as §1
(§2) Human duodenal carcinoma HuTu-80 cells, human hepatocellular carcinoma HepG2 cells, human cervical carcinoma KB-3-1 cells, human lung carcinoma A549 cells were obtained from the Russian Cell Culture Collection (Institute of Cytology, RAS, St. Petersburg, Russia). Non-transformed human fibroblasts hFF3 were kindly provided by Dr. Olga Koval (Institute of Chemical Biology and Fundamental Medicine, SB RAS, Novosibirsk, Russia). RAW264.7 macrophages were kindly provided by Prof. Dr. Dmitry Kuprash (Engelhardt Institute of Molecular Biology, RAS, Moscow, Russia). The cells were cultured in DMEM (Sigma-Aldrich Inc., St. Louis, MO, USA) supplemented with 10% (v/v) heat-inactivated fetal bovine serum (FBS) (BioloT, St. Petersburg, Russia), 100 U/mL penicillin (ICN Biomedicals Inc., Costa Mesa, CA, USA), 100 µg/mL streptomycin and 0.25 µg/mL amphotericin; additionally, in the case of RAW264.7 cells, concentration of glucose in the medium was increased up to 4.5 mg/mL. The cells were incubated at 37 °C in 5% CO2 and 95% air (hereafter referred to as standard conditions). DCA derivatives were dissolved in DMSO to yield stock solutions of 10 mmol/L and stored at −20 °C prior to use.
(§3) Cells were seeded in triplicate in 96-well plates at a density of 5 × 10^3 (HuTu-80, HepG2, KB-3-1, hFF3), 10^4 (A549) or 5 × 10^4 (RAW264.7) cells per well. Cells were incubated under standard conditions for 24 h and then they were treated with varying doses of investigated derivatives for subsequent 24 h. Then 10 µL of MTT solution (5 mg/mL) were added to each wells and cells were incubated for an additional 2 h under standard conditions. The crystals of formazan forming within live cells were solubilized with DMSO and the absorbance was measured in a Multiscan RC plate reader (Thermo LabSystems, Helsinki, Finland) at a test and reference wavelengths of 570 nm and 620 nm, respectively. […] To perform SAR analysis, hierarchical clustering of compounds based on their IC50 values was fulfilled with Euclidean distance by using the Morpheus tool (https://software.broadinstitute.org/morpheus/), a platform designed for visualization and analysis of data in a matrix format. Heatmap, containing compounds’ SI values, were constructed by using the Excel 2010 software (Microsoft, Redmond, WA, USA). In order to reveal whether ROS participate in the induction of cell death by compound 9, HuTu-80 cells cultured in 96-well plate were pretreated by NAC at 2 mM for 1 h. Thereafter, the medium was replaced by fresh medium with compound 9 at 8 µM and the cells were incubated with subsequent 24 h under standard conditions. After this time period, the curves of cytotoxicity of compound 9 in the presence or absence of NAC were compared.

KB-3-1 cells = test: MTT cytotoxicity assay, KB-3-1; type: cell-based, human; details: for IC50: Homo sapiens, KB 3-1, MTT, 24 h, read-out: IC50 KB3-1 (cervix); for Selectivity index KB-3-1: ratio IC50 hFF3 / IC50 KB-3-1
Description: as §1, §2, §3

A549 cells = test: MTT cytotoxicity assay, A549; type: cell-based, human; details: for IC50: Homo sapiens, A549, MTT, 24 h, read-out: IC50 A549 (lung); for Selectivity index A549: ratio IC50 hFF3 / IC50 A549
Description: as §1, §2, §3

HuTu-80 cells = test: cells; type: cell-based; details: for IC50: Homo sapiens, HuTu80, MTT, 24 h, read-out: IC50 HuTu-80 (duodenum); for Selectivity index HuTu-80: ratio IC50 hFF3 / IC50 HuTu-80
Description: as §1, §2, §3

[3] = tested on: non-transformed human fibroblasts hFF3; test: MTT cytotoxicity assay, hFF3; type: cell-based; details: HFF-3, 24 h, read-out: IC50 hFF3 (fibroblast)
Description: as §1
as §2, with “DCA derivatives were dissolved in DMSO to yield stock solutions of 10 mmol/L and stored at −20 °C prior to use.” left out
Cells were seeded in triplicate in 96-well plates at a density of 5 × 10^3 (HuTu-80, HepG2, KB-3-1, hFF3), 10^4 (A549) or 5 × 10^4 (RAW264.7) cells per well. […] The crystals of formazan forming within live cells were solubilized with DMSO and the absorbance was measured in a Multiscan RC plate reader (Thermo LabSystems, Helsinki, Finland) at a test and reference wavelengths of 570 nm and 620 nm, respectively. […]

RAW264.7 macrophages = test: MTT cytotoxicity assay, RAW264.7; type: cell-based, murine; details: for IC50: Mus musculus, RAW264.7, MTT, 24 h, read-out: IC50 RAW264.7 (macrophage); for Selectivity index RAW264: ratio IC50 hFF3 / IC50 RAW264.7
Description: as §1, §2, §3

[4] = Solubility in cell culture medium; type: physicochemical; details: maximal tested concentration limited by 50 µM

| Compound | IC50 [1] | IC50 [2] | IC50 (HepG2 cells) | Selectivity index HepG-2 (HepG2 cells) | IC50 (KB-3-1 cells) | Selectivity index KB-3-1 (KB-3-1 cells) | IC50 (A549 cells) | Selectivity index A549 (A549 cells) | IC50 (HuTu-80 cells) | Selectivity index HuTu-80 (HuTu-80 cells) | IC50 [3] | IC50 (RAW264.7 macrophages) | Selectivity index RAW264 (RAW264.7 macrophages) | solubility in cell culture medium [4] |
| --- | --- | --- | --- | --- | --- | --- | --- | --- | --- | --- | --- | --- | --- | --- |
| COC(=O)CC[C@@H](C)[C@H]1CC[C@H]2[C@@H]3CC[C@@H]4CC(O)(CNCCO)CC[C@]4(C)[C@H]3CC(=O)[C@]12C (stereo partly drawn) [Compound 8, Methyl 3-hydroxy-3-((2-hydroxyethylamino)methyl)-12-oxo-5β-cholan-24-oate] | > 10 µM | 4.4 to 34.8 µM | 5.8 ± 1.3 µM | 6 | 17.7 ± 2.8 µM | 1.9 | 29.6 ± 2.5 µM | 1.2 | 4.4 ± 0.34 µM | 7.9 | 34.8 ± 1 µM | 23.4 ± 1.2 µM | 1.5 | – |
| COC(=O)CC[C@@H](C)[C@H]1CC[C@H]2[C@@H]3CC[C@@H]4CC(O)(CN5CCOCC5)CC[C@]4(C)[C@H]3CC(=O)[C@]12C (stereo partly drawn) [Compound 10, Methyl 3-hydroxy-3-(morpholinomethyl)-12-oxo-5β-cholan-24-oate] | > 10 µM | – | 7.5 ± 1.2 µM | 6.6 | 8.4 ± 0.5 µM | 5.9 | > 50 µM | 1 | 10 ± 0.3 µM | 5 | > 50 µM | > 50 µM | 1 | poorly soluble |
